The target in the first assay is human SCN9A (Nav 1.7) (Homo sapiens, UniProt Q15858). Put plainly: Measurement of Na ion current (Nav 1.7) by automated patch clamp assay in cells stably-expressing human SCN9A. Type of assay: cell-based. The conditions noted are these: compound concentration 10 μmol/L; holding potential inactivating 50% Nav 1.7 channel (around −60 mV); read-out: Inhibitory rate (%) of Na ion current. The method, then:
Measurement of Na Ion Current in Voltage-Dependent Na Channel Gene Expressed Cell Nav 1.7 current was measured by automated patch clamp assay using cells stably-expressing human SCN9A. Cells Stably-expressing Human SCN9A Tetracycline-induced cells stably-expressing SCN9A were obtained from ChanTest Corporation. […] Next day, the Na ion current was measured by automated patch clamp assay. Electrophysiologic Measurement of Na Ion Current The Na ion current was measured by automated patch clamp assay using the following extracellular solution and intracellular solution. […] The control of the stimulating pulse and the data acquisition were carried out using EPC10 amplifier and Patch Master Software (HEKA). Data were sampled at 10 kHz, and low-pass filtered at 3 kHz. All the measurements were carried out at room temperature. […] The inhibitory rate of the Na ion current by the test compounds was calculated according to the following calculating formula with the peak current value generated by the depolarizing pulse. […] The inhibitory rate of Na ion current by each Example Compound was evaluated.
Chain of human SCN9A (Nav 1.7) (Q15858 whole entry): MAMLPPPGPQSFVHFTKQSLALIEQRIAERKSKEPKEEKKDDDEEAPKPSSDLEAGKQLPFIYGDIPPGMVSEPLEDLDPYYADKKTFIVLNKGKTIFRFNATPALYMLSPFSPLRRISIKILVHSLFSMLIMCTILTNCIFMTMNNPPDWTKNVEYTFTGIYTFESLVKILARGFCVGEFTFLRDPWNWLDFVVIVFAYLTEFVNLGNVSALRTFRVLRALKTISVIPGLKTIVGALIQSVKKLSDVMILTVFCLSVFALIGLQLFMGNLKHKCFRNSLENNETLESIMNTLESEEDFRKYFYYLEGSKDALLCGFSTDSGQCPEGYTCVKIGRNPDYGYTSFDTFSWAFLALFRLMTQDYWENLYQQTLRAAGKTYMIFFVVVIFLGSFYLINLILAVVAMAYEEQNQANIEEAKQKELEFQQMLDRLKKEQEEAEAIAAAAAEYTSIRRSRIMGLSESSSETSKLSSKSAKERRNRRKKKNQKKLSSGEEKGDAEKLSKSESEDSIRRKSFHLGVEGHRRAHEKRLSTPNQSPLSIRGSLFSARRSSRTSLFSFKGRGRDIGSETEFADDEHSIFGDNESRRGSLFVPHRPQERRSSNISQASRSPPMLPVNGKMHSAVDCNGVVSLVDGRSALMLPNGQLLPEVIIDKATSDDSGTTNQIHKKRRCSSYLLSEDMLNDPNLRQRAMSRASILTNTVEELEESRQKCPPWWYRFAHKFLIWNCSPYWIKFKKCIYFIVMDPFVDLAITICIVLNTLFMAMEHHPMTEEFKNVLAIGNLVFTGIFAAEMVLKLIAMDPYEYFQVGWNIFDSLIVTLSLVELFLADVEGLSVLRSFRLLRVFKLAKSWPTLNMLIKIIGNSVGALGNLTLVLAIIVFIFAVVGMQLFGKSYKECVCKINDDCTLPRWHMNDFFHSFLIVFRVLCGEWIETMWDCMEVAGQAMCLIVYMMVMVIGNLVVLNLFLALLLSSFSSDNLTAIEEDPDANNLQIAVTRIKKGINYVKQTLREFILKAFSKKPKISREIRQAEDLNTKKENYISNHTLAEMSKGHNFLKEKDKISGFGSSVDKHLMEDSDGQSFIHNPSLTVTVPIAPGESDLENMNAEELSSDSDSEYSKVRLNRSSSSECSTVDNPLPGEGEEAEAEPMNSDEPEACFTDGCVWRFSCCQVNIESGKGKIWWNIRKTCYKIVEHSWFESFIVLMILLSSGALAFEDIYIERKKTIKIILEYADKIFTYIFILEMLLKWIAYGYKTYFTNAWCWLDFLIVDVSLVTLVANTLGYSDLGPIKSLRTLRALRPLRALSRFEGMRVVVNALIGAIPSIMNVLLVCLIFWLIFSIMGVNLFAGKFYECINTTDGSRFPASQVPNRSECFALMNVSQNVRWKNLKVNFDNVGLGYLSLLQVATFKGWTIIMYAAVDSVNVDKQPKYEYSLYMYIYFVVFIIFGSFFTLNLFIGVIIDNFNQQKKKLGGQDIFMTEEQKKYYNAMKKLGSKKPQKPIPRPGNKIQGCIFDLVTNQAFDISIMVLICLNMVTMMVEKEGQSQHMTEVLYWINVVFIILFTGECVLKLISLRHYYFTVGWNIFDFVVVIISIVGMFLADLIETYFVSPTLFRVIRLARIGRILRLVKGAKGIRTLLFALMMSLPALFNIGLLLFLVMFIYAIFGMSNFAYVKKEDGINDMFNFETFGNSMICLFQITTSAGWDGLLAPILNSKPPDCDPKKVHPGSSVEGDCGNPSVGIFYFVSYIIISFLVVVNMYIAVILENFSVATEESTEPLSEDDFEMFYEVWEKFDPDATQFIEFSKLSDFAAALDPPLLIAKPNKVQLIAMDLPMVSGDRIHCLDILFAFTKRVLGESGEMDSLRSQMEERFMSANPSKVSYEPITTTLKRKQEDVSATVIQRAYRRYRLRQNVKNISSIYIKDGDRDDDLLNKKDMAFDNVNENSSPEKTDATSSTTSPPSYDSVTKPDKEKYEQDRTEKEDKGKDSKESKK
For `OC1(Cn2cnc3ccc(Oc4ccc(C(F)(F)F)cn4)cc32)CCCC1` [Example 119], the inhibition at 10 µM came to 36%.

As for `CC(C)(O)Cn1cnc2ccc(Oc3ccc(OC(F)(F)F)cn3)cc21` [Example 120], the inhibition at 10 µM turned out to be 13%.

`C[C@]1(O)C[C@@H](n2cnc3ccc(Oc4ccc(OC(F)(F)F)cn4)cc32)C1` [Example 121]: the inhibition at 10 µM worked out at 21%.

Regarding `CC(C)(O)Cn1cnc2ccc(-c3ccc(C(F)(F)F)nc3)cc21` [Example 122], the inhibition at 10 µM turned out to be 14%.

For the molecule `COc1cc(C(F)(F)F)ccc1-c1ccc2ncn(CC(C)(C)O)c2c1` [Example 124], the inhibition at 10 µM came out at 61%.

Turning to `COc1ccc(-c2ccc3ncn(CC(C)(C)O)c3c2)cn1` [Example 125], the inhibition at 10 µM came out at 13%.

In the case of `COc1cc(F)ccc1-c1ccc2ncn(CC(C)(C)O)c2c1` [Example 128], the inhibition at 10 µM turned out to be 24%.

On to `Cc1cc(Cl)ccc1-c1ccc2ncn(CC(C)(C)O)c2c1` [Example 129], for which the inhibition at 10 µM was 51%.

Take `CC(C)(O)Cn1cnc2ccc(-c3ccc(Cl)cc3F)cc21` [Example 130, 1-[6-(4-chloro-2-fluorophenyl)-1H-benzimidazol-1-yl]-2-methylpropan-2-ol]: the inhibition at 10 µM was 48%.

In the case of `CC(C)(O)Cn1cnc2ccc(-c3ccc(Cl)cc3C(F)(F)F)cc21` [Example 131], the inhibition at 10 µM worked out at 62%.

Take `CC(C)(O)Cn1cnc2ccc(-c3ccc(Cl)cc3Cl)cc21` [Example 132]: the inhibition at 10 µM is 65%.

Take `CC(C)(O)Cn1cnc2ccc(-c3cccc(Cl)c3F)cc21` [Example 133]: the inhibition at 10 µM turned out to be 60%.

Turning to `CC(C)(O)Cn1cnc2ccc(-c3ccc(F)c(Cl)c3)cc21` [Example 134], the inhibition at 10 µM was 50%.

Consider `CC(C)(O)Cn1cnc2ccc(-c3ccc(S(C)(=O)=O)cc3F)cc21` [Example 135], for which the inhibition at 10 µM came out at 29%.

Regarding `CC(C)(O)Cn1cnc2ccc(-c3ccc(C(F)(F)F)cc3Cl)cc21` [Example 136], the inhibition at 10 µM turned out to be 70%.

As for `CC(C)(O)Cn1cnc2ccc(-c3cccc(C(F)(F)F)c3)cc21` [Example 137], the inhibition at 10 µM was 38%.

For `CC(C)(O)Cn1cnc2ccc(-c3ccccc3Cl)cc21` [Example 138], the inhibition at 10 µM stood at 34%.

In the case of `CC(C)(O)Cn1cnc2ccc(-c3cccc(Cl)c3)cc21` [Example 139], the inhibition at 10 µM turned out to be 35%.

Take `CC(C)(O)Cn1cnc2ccc(-c3ccccc3OC(F)(F)F)cc21` [Example 140]: the inhibition at 10 µM was determined as 24%.

On to `CC(C)(O)Cn1cnc2ccc(-c3cccc(OC(F)(F)F)c3)cc21` [Example 141], for which the inhibition at 10 µM was 53%.

As to `COc1cc(-c2ccc3ncn(CC(C)(C)O)c3c2)cc(C(F)(F)F)c1` [Example 142], the inhibition at 10 µM is 55%.

As for `CC(C)(O)Cn1cnc2ccc(-c3cc(F)cc(Cl)c3)cc21` [Example 143], the inhibition at 10 µM is 35%.

Turning to `CC(C)(O)Cn1cnc2ccc(-c3cnoc3)cc21` [Example 144], the inhibition at 10 µM amounted to 19%.

As for `CC(C)(O)Cn1cnc2ccc(-c3ccc4ncccc4c3)cc21` [Example 145], the inhibition at 10 µM stood at 15%.

As for `CC(C)(O)Cn1cnc2ccc(-c3ccoc3)cc21` [Example 146], the inhibition at 10 µM was determined as 17%.

On to `CC(C)(O)Cn1cnc2ccc(-c3ccc4ocnc4c3)cc21` [Example 147], for which the inhibition at 10 µM worked out at 15%.

Consider `OC1(Cn2cnc3ccc(-c4ccc(C(F)(F)F)cc4F)cc32)COC1` [Example 149], for which the inhibition at 10 µM is 34%.

On to `OC1(Cn2cnc3ccc(-c4ccc(C(F)(F)F)cc4Cl)cc32)COC1` [Example 150], for which the inhibition at 10 µM turned out to be 47%.

Consider `OC1(Cn2cnc3ccc(-c4ccc(Cl)cc4C(F)(F)F)cc32)COC1` [Example 151], for which the inhibition at 10 µM was 44%.

In the case of `OC1(Cn2cnc3ccc(-c4cccc(Cl)c4Cl)cc32)COC1` [Example 152], the inhibition at 10 µM was found to be 38%.

In the case of `OC1(Cn2cnc3ccc(-c4cccc(Cl)c4F)cc32)COC1` [Example 153], the inhibition at 10 µM stood at 25%.

`OC1(Cn2cnc3ccc(-c4ccc(F)c(Cl)c4)cc32)COC1` [Example 154]: the inhibition at 10 µM stood at 52%.

`OC1(Cn2cnc3ccc(-c4ccc(Cl)c(Cl)c4)cc32)COC1` [Example 155]: the inhibition at 10 µM turned out to be 55%.

As to `OC1(Cn2cnc3ccc(-c4ccc(Cl)cc4Cl)cc32)COC1` [Example 156], the inhibition at 10 µM was 54%.

Turning to `OC1(Cn2cnc3ccc(-c4cc(Cl)ccc4Cl)cc32)COC1` [Example 157], the inhibition at 10 µM came to 51%.

Take `OC1(Cn2cnc3ccc(-c4cc(Cl)cc(Cl)c4)cc32)COC1` [Example 158]: the inhibition at 10 µM came out at 53%.

As to `Cc1c(Cl)cccc1-c1ccc2ncn(CC3(O)COC3)c2c1` [Example 159], the inhibition at 10 µM was 45%.

For the molecule `Cc1ccc(Cl)cc1-c1ccc2ncn(CC3(O)COC3)c2c1` [Example 160], the inhibition at 10 µM is 25%.

For the molecule `OC1(Cn2cnc3ccc(-c4cc(C(F)(F)F)ccc4F)cc32)COC1` [Example 161], the inhibition at 10 µM was 49%.

Take `OC1(Cn2cnc3ccc(-c4cc(C(F)(F)F)ccc4Cl)cc32)COC1` [Example 162]: the inhibition at 10 µM turned out to be 63%.

As to `COc1cc(-c2ccc3ncn(CC4(O)COC4)c3c2)cc(C(F)(F)F)c1` [Example 163], the inhibition at 10 µM turned out to be 47%.

For the molecule `Cc1cc(-c2ccc3ncn(CC4(O)COC4)c3c2)cc(C(F)(F)F)c1` [Example 164], the inhibition at 10 µM turned out to be 63%.

For `OC1(Cn2cnc3ccc(-c4cc(F)cc(Cl)c4)cc32)COC1` [Example 165], the inhibition at 10 µM was 35%.

`Cc1c(-c2ccc3ncn(CC4(O)COC4)c3c2)cccc1C(F)(F)F` [Example 166]: the inhibition at 10 µM is 54%.

As to `COc1cccc(-c2ccc3ncn(CC4(O)COC4)c3c2)c1Cl` [Example 167], the inhibition at 10 µM stood at 71%.

Turning to `OC1(Cn2cnc3ccc(-c4cccc(C(F)(F)F)c4Cl)cc32)COC1` [Example 168], the inhibition at 10 µM is 77%.

With `Cc1cc(Cl)cc(-c2ccc3ncn(CC4(O)COC4)c3c2)c1` [Example 169], the inhibition at 10 µM was found to be 46%.

Turning to `CC(C)(O)CCn1cnc2ccc(-c3ccc(F)cc3)cc21` [Example 170], the inhibition at 10 µM is 32%.

On to `CC(C)(O)CCn1cnc2ccc(-c3ccc(Cl)cc3)cc21` [Example 171], for which the inhibition at 10 µM came to 60%.

As for `CC(C)(O)CCn1cnc2ccc(-c3ccc(C(F)(F)F)cc3)cc21` [Example 172], the inhibition at 10 µM amounted to 64%.

As for `COc1cc(C(F)(F)F)ccc1-c1ccc2ncn(CCC(C)(C)O)c2c1` [Example 173, 4-{6-[2-methoxy-4-(trifluoromethyl)phenyl]-1H-benzimidazol-1-yl}-2-methylbutan-2-ol], the inhibition at 10 µM was 80%.

As for `CC(C)(O)CCn1cnc2ccc(-c3ccc(C(F)(F)F)cc3F)cc21` [Example 174], the inhibition at 10 µM came to 66%.

As for `CC(C)(O)Cn1cnc2cc(-c3ccc(F)cc3)ccc21` [Example 175, 1-[5-(4-fluorophenyl)-1H-benzimidazol-1-yl]-2-methylpropan-2-ol], the inhibition at 10 µM was determined as 16%.

Regarding `COc1cc(C(F)(F)F)ccc1-c1ccc2c(c1)ncn2CC(C)(C)O` [Example 176, 1-{5-[2-methoxy-4-(trifluoromethyl)phenyl]-1H-benzimidazol-1-yl}-2-methylpropan-2-ol], the inhibition at 10 µM worked out at 73%.

`CC(C)(O)Cn1cnc2cc(-c3ccc(N4CCOCC4)cc3)ccc21` [Example 177]: the inhibition at 10 µM was found to be 54%.

With `CC(C)(O)Cn1cnc2cc(-c3ccc(Cl)cc3)ccc21` [Example 178], the inhibition at 10 µM was 34%.

For `CC(C)(O)Cn1cnc2cc(-c3ccc(C(F)(F)F)nc3)ccc21` [Example 180], the inhibition at 10 µM is 33%.

In the case of `CC(C)(O)Cn1cnc2cc(-c3ccc(C(F)(F)F)cc3)ccc21` [Example 184], the inhibition at 10 µM came to 67%.

Turning to `CC(C)(O)Cn1cnc2cc(-c3ccc(Cl)cc3Cl)ccc21` [Example 185], the inhibition at 10 µM is 45%.

As to `COc1cc(F)ccc1-c1ccc2c(c1)ncn2CC(C)(C)O` [Example 186], the inhibition at 10 µM was determined as 22%.

Consider `Cc1cc(Cl)ccc1-c1ccc2c(c1)ncn2CC(C)(C)O` [Example 187], for which the inhibition at 10 µM is 45%.

As for `CC(C)(O)Cn1cnc2cc(-c3ccc(Cl)cc3F)ccc21` [Example 188], the inhibition at 10 µM worked out at 51%.

With `CC(C)(O)Cn1cnc2cc(-c3cccc(Cl)c3F)ccc21` [Example 189], the inhibition at 10 µM was found to be 42%.

Consider `CC(C)(O)Cn1cnc2cc(-c3ccc(F)c(Cl)c3)ccc21` [Example 190], for which the inhibition at 10 µM turned out to be 42%.

Regarding `CC(C)(O)Cn1cnc2cc(-c3ccc(Cl)cc3C(F)(F)F)ccc21` [Example 191], the inhibition at 10 µM was 52%.

Still in this assay, the particulars now being: compound concentration 100 μmol/L (footnoted examples); holding potential inactivating 50% Nav 1.7 channel (around −60 mV); read-out: Inhibitory rate (%) of Na ion current.
`O[C@H]1CC[C@H](n2cnc3ccc(Oc4ccc(C(F)(F)F)cn4)cc32)CC1` [Example 117]: the inhibition at 100 µM was determined as 44%.

Regarding `Cc1ccc(-c2ccc3ncn(CC(C)(C)O)c3c2)cn1` [Example 126], the inhibition at 100 µM came out at 7%.

As for `CC(C)(O)Cn1cnc2ccc(-c3ccc(N4CCOCC4)nc3)cc21` [Example 127], the inhibition at 100 µM is 16%.

Consider `COc1ccc(-c2ccc3c(c2)ncn3CC(C)(C)O)cn1` [Example 182], for which the inhibition at 100 µM was 11%.

`Cc1ccc(-c2ccc3c(c2)ncn3CC(C)(C)O)cn1` [Example 183]: the inhibition at 100 µM amounted to 30%.

Source of the values: patent US10407395B2, “Benzimidazole compound and medical use thereof” (Sumitomo Dainippon Pharma Co., Ltd., priority 2015, dated 2019).
